Experimental findings from PubChem BioAssay (NCI) are described below.

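Following 48 hours of exposure in 96-well plates, responses at five concentrations were used to interpolate endpoints linearly. Definition used: TGI = concentration required for complete inhibition of growth.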 Where a SMILES comes first, the peptide text is derived from it. [ ]: non-standard residue; d: D form. The star is where a group is joined. ξ: configuration not given here. NMeY = CN[C@@H](Cc1ccc(O)cc1)C(=O)O; Cbz = O=C(OCc1ccccc1)*; ξA = CC(N)C(=O)O

Test in all cases: growth of human tumour cells (NCI), 48 h
Experiment [1] deals with 786-0 renal.
Experiment [2] relates to A498 renal.
Experiment [3] relates to COLO 205 colon.
Experiment [4] has as its system DU-145 prostate.
Experiment [5] concerns HCC-2998 colon.
Experiment [6] concerns HCT-15 colon.
Experiment [7] deals with HS 578T breast.
The subject of experiment [8] is KM12 colon.
The subject of experiment [9] is LOX IMVI melanoma.
Experiment [10] concerns MDA-N.
Experiment [11] concerns OVCAR-5 ovarian.
Experiment [12] has as its system RPMI-8226 leukemia.
Experiment [13] concerns SF-295 CNS.
For experiment [14], the system named is SK-MEL-28 melanoma.
The test system of experiment [15] is SK-OV-3 ovarian.
Experiment [16] concerns SN12C renal.
The subject of experiment [17] is SNB-19 CNS.
Experiment [18] deals with SW-620 colon.
In experiment [19] the test system is UACC-62 melanoma.
For experiment [20], the system named is UO-31 renal.

In the case of `COc1ccc(C[C@@H](C(=O)N[C@@H](C)C(N)=O)N(C)C(=O)[C@@H]2CCCN2C(=O)[C@H](CC(C)C)NC(=O)C(C)NC(=O)OCc2ccccc2)cc1` (stereo not given in full) (Cbz-[ξA]LP[NMeY](Me)A-NH2), the TGI in experiment [1], in [2], in [3], in experiment [4], in experiment [5] and in [6] was greater than 100 µM in each case. The TGI in experiment [7], in experiment [8], in experiment [9], in experiment [10], in [11] and in experiment [12] was greater than 100 µM in each case. Moreover, the TGI in experiment [13], in experiment [14], in [15], in experiment [16], in [17] and in experiment [18] was greater than 100 µM throughout. Further, the TGI in experiment [19] and in experiment [20] was greater than 100 µM each time.

Regarding `O=C1c2ccccc2C(=O)c2c1oc1cc(O)c(Cl)cc21`, the TGI in [1] turned out to be 20.9 µM; in experiment [2] it was 34 µM; in [3] it was 3.27 µM; in experiment [4] it was 13.5 µM; in experiment [5] it was 14.8 µM; in experiment [6], 17.8 µM. In addition, the TGI amounted to 15.5 µM in experiment [7]; 19.4 µM in [8]; 7.88 µM in [9]; 3.35 µM in [10]; 23.9 µM in experiment [11]; 55.3 µM in experiment [12]. Further, the TGI in experiment [13] worked out at 9.46 µM; in experiment [14], 7.62 µM; in experiment [15], 40 µM; in experiment [16], 22.5 µM; in [17] it was 28 µM; in [18], 24.9 µM. Moreover, the TGI was 4.32 µM in experiment [19] and 26.6 µM in experiment [20].

Consider `CN(C)c1n2c3ccc([N+](=O)[O-])cc3n3c(N(C)C)[n+]4ccccc4c3c2c2cccc[n+]12`, for which the TGI in experiment [1], in experiment [2], in experiment [3], in experiment [4], in experiment [5] and in [6] was greater than 100 µM each time. Besides, the TGI in [7], in [8], in [9], in experiment [10], in experiment [11] and in experiment [12] was greater than 100 µM each time. Further, the TGI in experiment [13], in experiment [14], in [15], in [16], in experiment [17] and in experiment [18] was greater than 100 µM each time. For the same compound, the TGI in [19] and in experiment [20] was greater than 100 µM throughout.

As to `CCOC(=O)N1c2ccccc2N(C(=O)OCC)C1CC(=O)/C=C/c1ccccc1`, the TGI worked out at 10.6 µM in experiment [1]; 10.6 µM in experiment [2]; 4.17 µM in [3]; 9.11 µM in [4]; 10.6 µM in experiment [5]; 12.9 µM in experiment [6]. Further, the TGI was greater than 19.9 µM in experiment [7]; 9.51 µM in experiment [8]; 7.06 µM in [9]; 15.8 µM in [10]; 7.78 µM in experiment [11]; 26.6 µM in [12]. In addition, the TGI in experiment [13] amounted to 21.7 µM; in [14], 28 µM; in experiment [15], 23 µM; in experiment [16] it was 14.4 µM; in [17], 16.8 µM; in experiment [18], 25 µM. The TGI was 10.2 µM in experiment [19] and 14.7 µM in experiment [20].

Regarding `c1ccc2c(c1)CCN1CCc3ccccc3C1C2` (stereo not given), the TGI in experiment [1], in experiment [2], in experiment [3], in experiment [4], in [5] and in experiment [6] was greater than 100 µM in each case. Moreover, the TGI in [7], in experiment [8], in experiment [9], in experiment [10], in experiment [11] and in experiment [12] was greater than 100 µM throughout. The TGI in [13], in [14], in [15], in experiment [16], in experiment [17] and in experiment [18] was greater than 100 µM throughout. Further, the TGI was greater than 100 µM in experiment [19] and 68.9 µM in experiment [20].

Take `CC(C)(C)OC(=O)N(O)CCCn1cnc2c(NC3CC3)ncnc21`: the TGI in experiment [1], in experiment [2], in experiment [3], in [4], in [5] and in [6] was greater than 100 µM in each case. Moreover, the TGI in [7], in [8], in [9], in experiment [10], in experiment [11] and in experiment [12] was greater than 100 µM in each case. The TGI in experiment [13], in [14], in experiment [15], in experiment [16], in [17] and in [18] was greater than 100 µM throughout. Besides, the TGI in experiment [19] and in [20] was greater than 100 µM throughout.

For the compound `O=C1CSC(c2ccccc2)N1c1ccc(-c2ccc(-n3c(-c4ccccc4)nc4ccccc4c3=O)cc2)cc1` (stereo not given), the TGI in experiment [1], in experiment [2], in experiment [3], in experiment [4], in [5] and in experiment [6] was greater than 100 µM in each case. The TGI in experiment [7], in [8], in [9], in experiment [10], in [11] and in experiment [12] was greater than 100 µM throughout. For the same compound, the TGI in experiment [13], in experiment [14], in experiment [15], in experiment [16], in experiment [17] and in [18] was greater than 100 µM throughout. In addition, the TGI in experiment [19] and in experiment [20] was greater than 100 µM each time.

On to `C1CSCCSCCSCCSCCS1`, for which the TGI in [1], in [2], in experiment [3], in experiment [4], in experiment [5] and in experiment [6] was greater than 100 µM in each case. Further, the TGI in experiment [7], in experiment [8], in [9], in [10], in [11] and in experiment [12] was greater than 100 µM in each case. Besides, the TGI in experiment [13], in [14], in experiment [15], in experiment [16], in [17] and in experiment [18] was greater than 100 µM throughout. For the same compound, the TGI in experiment [19] and in experiment [20] was greater than 100 µM each time.

On to `COC(=O)[C@]12CC[C@H]3CN(S(=O)(=O)c4ccc(C)cc4)[C@H]([C@H]31)[C@H](c1ccco1)N2S(=O)(=O)c1ccc(C)cc1`, for which the TGI is greater than 100 µM in [1]; greater than 100 µM in [2]; 45.3 µM in [3]; greater than 100 µM in experiment [4]; greater than 100 µM in experiment [5]; greater than 100 µM in [6]. Also, the TGI in experiment [7] was greater than 100 µM; in experiment [8], greater than 100 µM; in [9], greater than 100 µM; in experiment [10], 73.7 µM; in experiment [11] it was greater than 100 µM; in experiment [12], 86.2 µM. Besides, the TGI in experiment [13], in experiment [14], in [15], in experiment [16], in experiment [17] and in [18] was greater than 100 µM in each case. In addition, the TGI in [19] was 69.3 µM; in [20], greater than 100 µM.

Take `OC1C2CCCCN2C[C@@H](O)[C@H]1O` (stereo not given in full): the TGI in experiment [1], in [2], in experiment [3], in [4], in [5] and in [6] was greater than 100 µM throughout. Besides, the TGI in experiment [7], in experiment [8], in experiment [9], in experiment [10], in [11] and in experiment [12] was greater than 100 µM throughout. The TGI in experiment [13], in experiment [14], in [15], in [16], in experiment [17] and in experiment [18] was greater than 100 µM in each case. The TGI in experiment [19] and in experiment [20] was greater than 100 µM throughout.
